Experimental data from article PMC8765435, “In Vitro Antimalarial Activity of Inhibitors of the Human GTPase Rac1” (Antimicrobial Agents and Chemotherapy, 2022).

Columns and labels:
[1] = test system: P. falciparum invasion of red blood cells; test: Parasite invasion assay; assay type: cell-based, Plasmodium falciparum; conditions: 2.5 μM
Protocol: Invasion assays were performed as previously described ([17]). Invasion rates were calculated by subtracting the number of schizonts at the end of the assay (6 h postinvasion [hpi]) from the number of schizonts in the time zero (T0) sample, obtaining the number of merozoite-releasing schizonts. The number of new infections was normalized to the number of merozoite-releasing schizonts to obtain the parasitized erythrocyte multiplication rate (PEMR). This value was normalized to the control sample, obtaining the invasion rate value. The results are the means from three independent biological replicates, each performed in triplicate.

[2] = test system: P. falciparum asexual parasites, chloroquine-sensitive D10 strain; test: Drug susceptibility assay (pLDH), asexual parasites, D10 strain; assay type: cell-based, Plasmodium falciparum; conditions: Plasmodium falciparum, D10, chloroquine-sensitive D10 strain; read-out: IC50, D10 strain
Protocol: (§1) Chloroquine (CQ)-sensitive (D10, wild-type 3D7, or transgenic 3D7elo1-pfs16-CBG99) and CQ-resistant (W2) strains of P. falciparum were cultured as described previously ([58]), with slight modifications, as detailed in the supplemental material.
(§2) Asexual parasite growth was determined spectrophotometrically (optical density at 650 nm [OD650]) by measuring the activity of parasite lactate dehydrogenase (pLDH), according to a modified version of the method of Makler et al. ([59]). Gametocyte viability was measured by a luminescence method described previously ([60]). Details for the two methods are reported in the supplemental material. From either the OD or ALU (arbitrary luminescence units), the percentages of viability were calculated according to the formula 100 × (treated sample signal − blank signal)/(untreated control signal − blank signal). The blank for the pLDH assay was uninfected RBCs at the same hematocrit as that of parasitized RBCs, and the blank for the luminescence assay was parasites treated with a high dose of methylene blue. […]
(§3) The CQ-sensitive (D10) and the CQ-resistant (W2) strains were maintained at 5% hematocrit […]
(§4) supplemented with 1% AlbuMaxII (lipid-rich bovine serum albumin) (Invitrogen), 0.01% hypoxantine (Sigma), 20mM Hepes (EuroClone), 2 mM glutamine (EuroClone). […]
(§5) In vitro P. falciparum drug susceptibility assay […]
(§6) plate were transferred to a plate containing 100µl of Malstat reagent (0.11% [vol/vol] Triton- […]
(§7) dinucleotide [APAD] [Sigma-Aldrich], adjusted to pH 9 with 1 M HCl) and 25 µl of PES/NBT […]
(§8) pLDHassay. The plate was read at a wavelength of 650 nm using a microplate reader, Synergy4 […]
(§9) Uninfected RBC at the same HCT than parasites were used as blank. […]

[3] = test system: P. falciparum W2 asexual parasites; test: Association experiments (isobologram), W2 parasites; assay type: cell-based, Plasmodium falciparum; conditions: in combination with 1A116, W2 parasites
Protocol: The effect of 1A116 on the IC50 of EHop-016 was determined by potentiation tests as previously described ([62]). Isobolograms were created by plotting a pair of fractional IC50s for each combination of EHop-016 and 1A116. […] The corresponding 1A116 fractional IC50s were calculated by dividing each fixed concentration by the IC50 of 1A116 alone and plotted on the vertical axis.

Rac1 = Rac1 (Homo sapiens, UniProt P63000); test: G-LISA Rac1 activation assay in uninfected erythrocytes; assay type: cell-based; set-up: endogenous in cells; host or cells: erythrocytes from whole blood of 7 donors; conditions: 2.5 μM, 2 h
Protocol: Whole blood collected from 7 donors was washed in RPMI 1640 four times to remove plasma, platelets, and leukocytes. The number of erythrocytes was determined by using a cell counting chamber. Erythrocytes were incubated for 2 h at 37°C with or without 2.5 μM EHop-016 and then washed. In each sample, the Rac1 activation state was measured with the G-LISA Rac1 activation assay luminescence-based biochemical kit (Cytoskeleton). Luminescence intensity was assessed with a BioTek Synergy HT plate reader. These experiments were performed in three biological replicates.

[4] = test system: P. falciparum asexual parasites, chloroquine-resistant W2 strain; test: Drug susceptibility assay (pLDH), asexual parasites, W2 strain; assay type: cell-based, Plasmodium falciparum; conditions: Plasmodium falciparum, W2, chloroquine-resistant W2 strain; read-out: IC50, W2 strain
Protocol: as §1, §2, §3, §4, §5, §6, §7, §8, §9

[5] = test system: human mammary epithelial cells; set-up: method as in PMID 25389450, PMID 25594952; conditions: at concentrations lower than 5 μM; cited from earlier work

CCn1c2ccccc2c2cc(Nc3ccnc(NCCCN4CCOCC4)n3)ccc21 [EHop-016]
RBC invasion efficiency (invasion rate vs untreated control) [1]: did not reduce the RBC invasion efficiency
IC50 [2]: 139 ± 16 nM
effect of combination (isobologram analysis) [3]: additive effect
fractional inhibitory concentration (FIC) [3]: < 2
levels of active Rac1 in noninfected erythrocytes (Rac1): does not inhibit Rac1 in noninfected erythrocytes
IC50 [4]: 322 ± 28.5 nM
viability of human mammary epithelial cells [5]: does not affect the viability
